Test results published in patent publication US20100150887A1, “Tissue Progenitor Cells That Overexpress ERG” (priority 2007, published 2010).

System: HERG overexpressing cells
Assay: Dofetilide responsiveness of action potentials
Settings: action potential after 1, 2 or 3 minute treatment (FIGS. 3A-D)
Description: AP is shown with-out DOF (FIG. 3A), or after 1 minute (FIG. 3B), 2 minute (FIG. 3C), or 3 minute treatments (FIG. 3D).

For `CN(CCOc1ccc(NS(C)(=O)=O)cc1)CCc1ccc(NS(C)(=O)=O)cc1` [dofetilide, Dofetilide], the “sensitivity to the effects of dofetilide” value was “sensitive”.
